Measured values published in patent US7078407B2, “4-hydroxycinnamamide derivatives as antioxidants and pharmaceutical compositions containing them” (Korea Research Institute of Chemical Technology, priority 2001, dated 2006).

Legend:
[1] = test system: lipid peroxidation in brain homogeneous substance; assay: Antioxidation activation test: lipid peroxidation assay (TBARS/MDA) in brain homogenate with FeCl2/ascorbic acid; format: biochemical, SD rat; settings: for IC50: 50% inhibitory concentration of lipid peroxidation (TBARS at 520 nm), rat brain homogenate, FeCl2/ascorbic acid; for antioxidation activity increased compared with the prior antioxidation activator BHT: relative to BHT IC50 of Table 4
Procedure: After decapitating a SD rat (male, 10–12 weeks old) and rapidly extracting the brain, 10 mM Tris-HCl buffer solution (pH 7.4) containing 150 mM KCl is added to 10 ml/brain and homogenated. Then, the homogenated brain mixture is centrifuged for 10 minutes at 2,200 rpm, 4° C., and the upper layer is collected through protein assay. The exact amount of protein is measured and kept at −20° C.
250 μl of brain homogeneous substance (5 mg protein/ml), 10 μl of sample substance, 20 μl of buffer solution is divided at the 96-well micro plate one by one, and cultured for 20 minutes at 37° C. under a shaking condition. Then, 10 μl of 20 μM FeCl2 and 250 μM ascorbic acid is respectively added to the mixture and cultured for 30 minutes at 37° C. After completing the reaction by adding 50 μl of 35% HClO4 to the mixture, the micro plate is centrifuged for 10 minutes at 2,000 rpm, 4° C., and only the upper layer is transferred to the 96-well micro plate in an amount of 240 μl, and then, 120 μl of TBA (thiabarbituric acid; 5 mg/ml in 50% acetic acid) is added to the mixture. After reacting the micro plate for an hour at 80° C., it is cooled at room temperature, and the optical density of the thus obtained TBARS (thiobarbituric acid reactive substances, MDA) is measured at 520 nm.
The assay response curve of TBARS obtained using tetraethoxypropane, a reaction substance of TBA is used in calculating the amount of reaction product MDA of the sample substance, and the oxidation inhibition effect of the test drug is obtained by the following equation 1. Further, the 50% inhibitory concentration (IC50) is obtained using the dose response curve.
wherein, A is the concentration (nmol) of the control protein (MDA/mg), and
B is the concentration (nmol) of the experiment protein (MDA/mg).

IC50 [1] | melting point | Compound | antioxidation activity increased compared with the prior antioxidation activator BHT [1]
2090 nM | – | Cc1cc(C(C)(C)C)c(O)c(C(C)(C)C)c1 [BHT, tert-butyl-hydroxytoluene, reference compound] | –
– | 75 to 80 °C | CCC(CC)Oc1cc(/C=C/C(=O)NCc2cc(C(C)(C)C)c(O)c(C(C)(C)C)c2)cc(OC(CC)CC)c1O [Example 4, 3-[3,5-bis-(1-ethylpropoxy)-4-hydroxyphenyl]-N-(3,5-di-t-butyl-4-hydroxybenzyl)acrylamide] | –
– | 137 to 140 °C | CCCCCCOc1cc(/C=C/C(=O)Nc2ccccc2O)cc(OCCCCCC)c1O [Example 6, 3-(3,5-bishexyloxy-4-hydroxyphenyl)-N-(2-hydroxyphenyl)acrylamide] | –
1530 nM | – | CCCCCCCCCOc1cc(CN2CCN(CC(O)c3ccc(Cl)cc3)CC2)cc(OCCCCCCCCC)c1O (stereo not shown) [Example 8, 4-{4-[2-(4-chlorophenyl)-2-hydroethyl]piperazine-1-ylmethyl}-2,6-bis-nonyloxyphenol] | 27%
260 nM | – | CCCCCCOc1cc(C=CC(=O)N2CCN(CC(O)c3ccc(F)cc3)CC2)cc(OCCCCCC)c1O (stereo not shown) [Example 12, 3-(3,5-bis-hexyloxy-4-hydroxyphenyl)-1-{4-[2-(4-fluorophenyl)-2-hydroxyethyl]piperazine-1-yl}propenone] | 88%
510 nM | – | CC(C)(C)c1cc(/C=C/C(=O)N2CCN(c3ccc(NC(=N)c4cccs4)cc3)CC2)cc(C(C)(C)C)c1O [Example 16, N-(4-(4-[3-(3,5-di-t-butyl-4-hydroxy-phenyl)-acryloyl]-piperizine-lyl}-phenyl)-thiophene-2-carboxamidine] | –
470 nM | 170 to 171 °C | CCC(CC)Oc1cc(/C=C/C(=O)N2CCN(c3ccc(NC(=N)c4cccs4)cc3)CC2)cc(OC(CC)CC)c1O [Example 17] | –
490 nM | – | CCCOc1cc(/C=C/C(=O)N2CCN(c3ccc(NC(=N)c4cccs4)cc3)CC2)cc(OCCC)c1O [Example 18, N-(4-{4-[3-(4-hydroxy-3,5-dipropoxy-phenyl)-acryloyl]-piperazine-1-yl}-phenyl)-thiophene-2-carboxamidine] | –
– | 149 to 167 °C | CC(C)(C)c1cc(/C=C/C(=O)N2CCN(c3ccc(NC(=N)c4ccc[nH]4)cc3)CC2)cc(C(C)(C)C)c1O [Example 21, N-(4-{4-[3-(3,5-di-t-butyl-4-hydroxy-phenyl)-acryloyl]-piperazine-1-yl}-phenyl)-1H-pyrrole-2-carboxamidine] | –
450 nM | 109 to 116 °C | CCCCCOc1cc(/C=C/C(=O)N2CCN(c3ccc(NC(=N)c4ccc[nH]4)cc3)CC2)cc(OCCCCC)c1O [Example 23, N-(4-{4-[3-(4-hydroxy-3,5-bis-penyloxy-phenyl)-acryloyl]-piperazine-1-yl}-phenyl)-1H-pyrrole-2-carboxamidine] | –
– | 100 to 145 °C | CCCCCCCOc1cc(/C=C/C(=O)N2CCN(c3ccc(NC(=N)c4ccc[nH]4)cc3)CC2)cc(OCCCCCCC)c1O [Example 24, N-(4-{4-[3-(3,5-bis-heptyloxy-4-hydroxy-phenyl)-acryloyl]-piperazine-1-yl}-phenyl)-1H-pyrrole-2-carboxamidine] | –

Compound | IC50 [1] | melting point | antioxidation activity increased compared with the prior antioxidation activator BHT [1]
CCCCOc1cc(/C=C/C(=O)NCCc2cc(C(C)(C)C)c(O)c(C(C)(C)C)c2)cc(OCCCC)c1O [Example 1, 3-(3,5-dibutoxy-4-hydroxyphenyl)-N-[2-(3,5-di-t-butyl-4-hydroxyphenyl)ethyl]acrylamide] | – | 82 to 85 °C | –
CCCCOc1cc(CCC(=O)N2CCN(CC(O)c3ccc(Cl)cc3)CC2)cc(OCCCC)c1O (stereo not shown) [Example 15, 1-{4-[2-(4-chlorophenyl)-2-hydroxyethyl]piperazine-1-yl}-3-(3,5-dibutoxy-4-hydroxyphenyl)propane-1-one] | 910 nM | – | 56%
CCCCOc1cc(/C=C/C(=O)N2CCN(c3ccc(NC(=N)c4cccs4)cc3)CC2)cc(OCCCC)c1O [Example 19, N-(4-{4-[3-(3,5-dibutoxy-4-hydroxy-phenyl)-acryloyl]-piperazine-1-yl}-phenyl)-thiophene-2-carboxamidine] | – | 99 to 102 °C | 82%
CCCCOc1cc(/C=C/C(=O)N2CCN(c3ccc(NC(=N)c4ccc[nH]4)cc3)CC2)cc(OCCCC)c1O [Example 22, N-(4-{4-[3-(3,5-dibutoxy-4-hydroxy-phenyl)-acryloyl]-piperazine-1-yl}-phenyl)-1H-pyrrole-2-carboxamidine] | 370 nM | – | 82%
